From paper PMC2783503 (Journal of medicinal chemistry, 2009)
Read-outs that look alike come from different tables or passages of the source. Non-standard residues stand in square brackets, D forms with d. Residues, ends and D or L forms follow the SMILES beside them. Phe(2,6-Me2,4-CONH2) = Cc1cc(C(N)=O)cc(C)c1C[C@H](N)C(=O)O; Dmt = Cc1cc(O)cc(C)c1C[C@H](N)C(=O)O; Tic = O=C(O)[C@@H]1Cc2ccccc2CN1

Tests used:
[1] = molecular target: κ opioid receptor (UniProt P41144); details: read-out: Ki^κ; ref Schiller et al.[10]; cited from earlier work
Sequence of κ opioid receptor (P41144 whole entry): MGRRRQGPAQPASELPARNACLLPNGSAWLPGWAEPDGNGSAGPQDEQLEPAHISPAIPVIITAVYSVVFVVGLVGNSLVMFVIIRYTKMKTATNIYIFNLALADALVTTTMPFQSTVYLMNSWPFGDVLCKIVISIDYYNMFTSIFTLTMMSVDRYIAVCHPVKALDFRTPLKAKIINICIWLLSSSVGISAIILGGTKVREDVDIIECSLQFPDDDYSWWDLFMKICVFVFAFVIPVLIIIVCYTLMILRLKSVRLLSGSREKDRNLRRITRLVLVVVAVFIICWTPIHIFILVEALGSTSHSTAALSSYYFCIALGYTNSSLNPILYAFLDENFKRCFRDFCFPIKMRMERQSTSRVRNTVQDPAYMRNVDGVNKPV

[2] = molecular target: μ opioid receptor (UniProt P33535); details: read-out: Ki^μ; ref Schiller et al.[10]; cited from earlier work
Sequence of μ opioid receptor (UniProt P33535) (P33535 whole entry): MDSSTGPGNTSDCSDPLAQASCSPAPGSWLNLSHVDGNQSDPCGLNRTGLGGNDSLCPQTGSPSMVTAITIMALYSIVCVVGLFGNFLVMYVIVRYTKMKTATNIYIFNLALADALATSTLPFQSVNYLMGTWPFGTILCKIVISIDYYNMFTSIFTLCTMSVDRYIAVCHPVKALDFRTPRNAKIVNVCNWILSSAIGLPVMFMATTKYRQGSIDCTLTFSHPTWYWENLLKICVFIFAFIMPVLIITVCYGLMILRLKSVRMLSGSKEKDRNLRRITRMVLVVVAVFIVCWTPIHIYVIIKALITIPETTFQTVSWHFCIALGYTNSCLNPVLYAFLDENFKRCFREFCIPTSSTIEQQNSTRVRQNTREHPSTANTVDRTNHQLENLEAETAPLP

[3] = test system: μ opioid receptor; details: result in words; ref Schiller et al.[10]; cited from earlier work
[4] = molecular target: T1, δ opioid receptor (Mus musculus, UniProt P32300); details: δ antagonist activity; ref Schiller et al.[10]; cited from earlier work
T1 sequence (P32300 whole entry): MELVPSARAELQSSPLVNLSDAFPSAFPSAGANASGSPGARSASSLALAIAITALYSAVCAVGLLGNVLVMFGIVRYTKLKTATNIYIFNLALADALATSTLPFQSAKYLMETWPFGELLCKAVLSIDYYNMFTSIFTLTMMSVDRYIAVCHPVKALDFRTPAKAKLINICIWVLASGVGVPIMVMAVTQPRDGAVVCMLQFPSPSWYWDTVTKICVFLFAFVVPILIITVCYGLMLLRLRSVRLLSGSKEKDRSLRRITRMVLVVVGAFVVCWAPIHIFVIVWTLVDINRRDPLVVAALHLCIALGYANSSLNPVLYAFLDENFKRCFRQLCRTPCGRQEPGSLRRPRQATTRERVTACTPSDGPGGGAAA

[5] = test system: μ opioid receptor; assay: GPI; set-up: species or system guinea pig
[6] = molecular target: T1, δ opioid receptor; assay: MVD

Which results are given for H-[Dmt]-[Tic]-OH [compound 11]?
Ki [1]: > 1000 nM; Ki [2]: 1360 ± 160 nM; GPI activity [3]: inactive

With H-[Dmt][Tic]FF-OH [compound 10] as the compound, how does the “MVD Ke^δ” value [4] read?
Its value is 0.196 ± 0.035 nM.

Which results are given for N[C@@H](Cc1ccc(O)cc1)C(=O)N1Cc2ccccc2C[C@H]1C(=O)O [compound 9, H-Tyr-Tic-OH] (H-Tyr-[Tic]-OH)?
GPI activity ([5]; result in words): inactive; Kb [6]: 263 ± 40 nM

For Cc1cc(C(N)=O)cc(C)c1C[C@H](N)C(=O)N1Cc2ccccc2C[C@H]1C(=O)N[C@@H](Cc1ccccc1)C(=O)N[C@@H](Cc1ccccc1)C(=O)O [compound 12, H-Cdp-Tic-Phe-Phe-OH] (H-[Phe(2,6-Me2,4-CONH2)][Tic]FF-OH), which “GPI Ke^μ” value ([5]; μ antagonist activity) is on record?
Its value is 3.07 ± 0.26 µM.

And the Kb [6]?
The Kb was 0.627 ± 0.058 nM.

For H-Y[Tic]FF-OH [compound 8], which “MVD Ke^δ” value [4] is on record?
The value was 4.80 ± 0.20 nM.
